Laboratory results taken from US8445444B2, “Compositions and methods for diagnosing, treating, and preventing prostate conditions” (Phigenix, Inc., priority 2007, dated 2013).
Entries after “also recorded” stand apart in the source; their conditions may differ.

How the values were obtained:
HPrEC = test: Quantitative RT-PCR of gene expression; format: cell-based, human; settings: for decrease in DEFB1 expression compared to untreated hPrEC / increase in PAX2 expression compared to untreated hPrEC: 10 uM AngII; for PAX2 expression as % of PAX2 levels in PC3: AngII
Procedure: RNA Isolation and Quantitative RT-PCR: In order to verify changes in DEFB1 expression levels RNA was collected after 4 days of PAX2 siRNA treatment. Briefly, total RNA was isolated using the SV Total RNA Isolation System (Promega, Madison, Wis.) from approximately 1×10^6 cells harvested by trypsinizing. Here, cells were lysed and total RNA was isolated by centrifugation through spin columns. Total RNA (0.5 μg per reaction) from both sources was reverse transcribed into cDNA utilizing random primers (Promega). AMV Reverse Transcriptase II enzyme (500 units per reaction; Promega) was used for first strand synthesis and Tfl DNA Polymerase for second strand synthesis (500 units per reaction; Promega) as per the manufacturer's protocol. In each case, 50 pg of cDNA was used per ensuing PCR reaction. Two-step QRT-PCR was performed on cDNA generated using the MultiScribe Reverse Transcripatase from the TaqMan Reverse Transcription System and the SYBR Green PCR Master Mix (Applied Biosystems).
The primer pair for DEFB1 was generated from the published DEFB1 sequence (Accession No. U50930). Forty cycles of PCR were performed under standard conditions using an annealing temperature of 56° C. In addition, GAPDH was amplified as a housekeeping gene to normalize the initial content of total cDNA. DEFB1 expression was calculated as the relative expression ratio between DEFB1 and GAPDH and was compared in cells lines before and after siRNA knock-down of PAX2 expression. All reactions were run three times in triplicate.
QRT-PCR Analysis: Quantitative real-time RT-PCR was performed to verify changes in gene expression following PAX2 knockdown in PC3 and DU145 prostate cancer cell lines and the hPrEC normal prostate epithelial cells. Approximately 1×10^6 cells were harvested by trypsinizing and the cells were rinsed in PBS. Cells were then lysed and total RNA was isolated by centrifugation through spin columns using the SV Total RNA Isolation System (Promega). cDNA was generated (0.5 μg per reaction) by reverse transcription by Oligo (dT) 15 primer (Promega) and AMV Reverse Transcriptase II enzyme (500 units per reaction; Promega) for first strand synthesis and Tfl DNA Polymerase for second strand synthesis (500 units per reaction; Promega) as per the manufacturer's protocol. Typically, 50 pg of each cDNA was used per ensuing PCR reaction. Two-step QRT-PCR was performed on cDNA generated using the MultiScribe Reverse Transcripatase from the TaqMan Reverse Transcription System and the SYBR Green PCR Master Mix (PE Biosystems). Reactions were performed in MicroAmp Optical 96-well Reaction Plate (PE Biosystems). Forty cycles of PCR were performed under standard conditions using an annealing temperature of 60° C. Quantification was determined by the cycle number where exponential amplification began (threshold value) and averaged from the values obtained from the triplicate repeats. There was an inverse relationship between message level and threshold value. In addition, GAPDH was used as a housekeeping gene to normalize the initial content of total cDNA. Relative expression was calculated as the ratio between each genes and GAPDH. All reactions were carried out in triplicate.
RNA isolation and quantitative RT-PCR: QRT-PCR was performed as previously described (Gibson et al., 2007). Briefly, total RNA (0.5 μg per reaction) from tissue sections were reverse transcribed into cDNA utilizing random primers (Promega). Two-step QRT-PCR was performed on cDNA generated using the MultiScribe Reverse Transcriptase from the TaqMan Reverse Transcription System and the SYBR Green PCR Master Mix (Applied Biosystems, Foster City, Calif.). The primer pairs for hBD-1 and c-MYC were generated from the published sequences (Table 7). Forty cycles of PCR were performed under standard conditions using an annealing temperature of 56.4° C. for hBD-1 and c-MYC and 55° C. for PAX2. […]

DU145 [1] = test: Quantitative RT-PCR of gene expression; format: cell-based, human; settings: for PAX2 message levels: DU145, Losartan (FIG. 20A)
Procedure: Total RNA was isolated using the SV Total RNA Isolation System (Promega). Briefly, approximately 1×10^6 cells were harvested by trypsinizing, and rinsed in PBS. Cells were then lysed and total RNA was isolated by centrifugation through spin columns. Total RNA (0.5 μg per reaction) was reverse transcribed into cDNA utilizing Oligo (dT) 15 primer (Promega) and AMV Reverse Transcriptase II enzyme (500 units per reaction; Promega) for first strand synthesis and Tfl DNA Polymerase for second strand synthesis (500 units per reaction; Promega) as per the manufacturers' protocol, with identical control samples treated without RT enzyme. Typically, 50 pg of each cDNA was used per ensuing PCR reaction Two-step QRT-PCR was performed on cDNA generated using the MultiScribe Reverse Transcripatase from the TaqMan Reverse Transcription System and the SYBR Green PCR Master Mix (PE Biosystems). […] Reactions were performed in MicroAmp Optical 96-well Reaction Plate (PE Biosystems). Forty cycles of PCR were performed under standard conditions using an annealing temperature of 60° C. Quantification was determined by the cycle number where exponential amplification began (threshold value) and averaged from the values obtained from the triplicate repeats. There was an inverse relationship between message level and threshold value. In addition, GAPDH was used as a housekeeping gene to normalize the initial content of total cDNA. […] All reactions were carried out in triplicate.
Forty cycles of PCR were performed under standard conditions using an annealing temperature of 56° C. In addition, GAPDH was amplified as a housekeeping gene to normalize the initial content of total cDNA. […] All reactions were run three times in triplicate.

DU145 [2] = test: [3H] thymidine incorporation proliferation; format: cell-based, human; settings: for increase in proliferation: 72 hours; for effect of AngII on proliferation after Los pre-treatment: DU145, Los 30 min prior to AngII
Procedure: Reagents and Treatments: […] Thymidine Incorporation: Proliferation of cells was determined by [3H] thymidine […] ([3H] TdR) incorporation into DNA. 0.5×10^6 cells/well of suspension DU145 cells were plated in their appropriate media. Cells were incubated for 72 h with or without the presence of AngII at the indicated concentrations. Cells were exposed to 37 kBq/ml [methyl-3H] thymidine in the same medium for 6 h. The adherent cells were fixed by 5% trichloroacetic acid and lysed in SDS/NaOH lysis buffer overnight. Radioactivity was measured by Beckman LS3801 liquid scintillation counter (Canada). Suspension cell culture was harvested by cell harvester (Packard instrument Co., Meriden, Conn.), and radioactivity was measured by 1450 microbeta liquid scintillation counter (PerkinElmer Life Sciences).

DU145 [3] = test: Western analysis; format: cell-based, human; settings: for phospho-JNK protein levels / PAX2 expression / phospho-PAX2 protein levels: DU145; for PAX2 expression / phospho-PAX2 protein levels: 5 uM Los, 25 uM U0126, 20 uM PD98059, 250 μM AICAR
Procedure: . Following a 15 minute incubation period at 4° C. on an orbital shaker, cell lysate were then collected and centrifuged for 10 minutes at 12000×g to pellet cellular debris. The protein-containing supernatant were then collected and quantitated. Next, 25 μg protein extract was loaded onto an 8-16% gradient SDS-PAGE (Novex). Following electrophoresis, proteins were transferred to PVDF membranes, and then blocked with 5% nonfat dry milk in TTBS (0.05% Tween 20 and 100 mM Tris-Cl) for 1 hour. Blots were then probed with rabbit anti-PAX2 primary antibody (Zymed, San Francisco, Calif.) at a 1:2000 dilution. After washing, the membranes were incubated with anti-rabbit antibody conjugated to horseradish peroxidase (HRP) (dilution 1:5000; Sigma), and signal detection was visualized using chemilluminescence reagents (Pierce) on an Alpha Innotech Fluorchem 8900. As a control, blots were stripped and reprobed with mouse anti-β-actin primary antibody (1:5000; Sigma-Aldrich) and HRP-conjugated anti-mouse secondary antibody (1:5000; Sigma-Aldrich) and signal detection was again visualized.
Following a 15-minute incubation period at 4° C. on an orbital shaker, cell lysates were collected and centrifuged for 10 minutes at 12000×g to pellet cellular debris. The protein-containing supernatant were then collected and quantitated. Next, 25 ug protein extract was loaded onto an 8-16% gradient SDS-PAGE (Novex). Following electrophoresis, proteins were transferred to PVDF membranes, and then blocked with 5% nonfat dry milk in TTBS (0.05% Tween 20 and 100 mM Tris-Cl) for 1 hour. Blots were then probed with primary antibody (anti-PAX2, -phospho-PAX2, -JNK, -phospho-JNK, -ERK1/2, or -phospho-ERK1/2) (Zymed, San Francisco, Calif.) at 1:1000-2000 dilutions. After washing, the membranes were incubated with anti-rabbit antibody conjugated to horseradish peroxidase (HRP) (dilution 1:5000; Sigma), and signal detection was visualized using chemilluminescence reagents (Pierce) on an Alpha Innotech Fluorchem 8900. As a control, blots were stripped and re-probed with mouse anti-β-actin primary antibody (1:5000; Sigma-Aldrich) and HRP-conjugated anti-mouse secondary antibody (1:5000; Sigma-Aldrich), and signal detection was again visualized.
. Following a 15-min incubation period at 4° C. on an orbital shaker, cell lysates were collected and centrifuged for 10 min at 12,000 g to pellet cellular debris. The protein-containing supernatant were then collected and quantitated. Next, 25 μg protein extract was loaded onto an 8-16% gradient SDS-PAGE (Novex). Following electrophoresis, proteins were transferred to PVDF membranes, and then blocked with 5% non-fat dry milk in TTBS (0.05% Tween 20 and 100 mM Tris-Cl) for 1 h. Blots were then probed with rabbit anti-PAX2 primary antibody (Zymed, San Francisco, Calif.) at a 1:1000 dilution. After washing, the membranes were incubated with anti-rabbit antibody conjugated to horseradish peroxidase (HRP) (dilution 1:5000; Sigma), and signal detection was visualized using chemiluminescence reagents (Pierce) on an Alpha Innotech Fluorchem 8900. As a control, blots were stripped and reprobed with mouse anti-β-actin primary antibody (1:5000; Sigma-Aldrich) and HRP-conjugated anti-mouse secondary antibody (1:5000; Sigma-Aldrich), and signal detection was again visualized.

[4] = system: human prostate cancer cells; settings: xenograft models of human prostate cancer cells; cited from earlier work
DU145 [5] = test: Western analysis; format: cell-based, human; settings: 5 uM Los, 25 uM U0126, 20 uM PD98059, 250 μM AICAR
[6] = AngII 72 and 96 hours (FIG. 25 legend)

With “AngII: Angiotensin II, major regulator of blood pressure, potent mitogen, binds AT1R and AT2R (DRVYIHPF)” the “decrease in DEFB1 expression compared to untreated hPrEC” value (HPrEC; 72 hours) was 35%, the “increase in PAX2 expression compared to untreated hPrEC” value (HPrEC; 72 hours) was 66% and the “decrease in DEFB1 expression compared to untreated hPrEC” value (HPrEC; 96 hours) was 50%. For the same compound, the “increase in PAX2 expression compared to untreated hPrEC” value (HPrEC; 96 hours) was 79%, the DEFB1 expression (HPrEC; [6]) was “reduced significantly” and the PAX2 expression (HPrEC; [6]) was “dramatic increases in PAX2 to levels similar to PC3 prostate cancer cells”. The “PAX2 expression as % of PAX2 levels in PC3” value (HPrEC; 72 hours) was 77%, the “PAX2 expression as % of PAX2 levels in PC3” value (HPrEC; 96 hours) was 89% and the PAX2 expression increase (DU145 [1]; DU145, 5 μM AngII, 72 hours (FIG. 21 legend)) was 2 fold. It also gave a PAX2 expression increase (DU145 [1]; DU145, 10 μM AngII, 72 hours (FIG. 21 legend)) of over 3 fold, an increase in proliferation (DU145 [2]; DU145, 5 μM AngII) of 2 fold and an increase in proliferation (DU145 [2]; DU145, 10 μM AngII) of over 3 fold. The “increase in proliferation rate” value (DU145 [2]; DU145, AngII 5 or 10 uM) was “two- to three-fold increase”, the phospho-JNK protein levels (DU145 [3]) was “increased phosphor-JNK protein levels” and the “PAX2 expression over time” value (DU145 [3]; DU145, AngII, 30 min to 48 hour (FIG. 19)) was “increased as early as 4 hours and persisted until 48 hours; also recorded: progressively increased over time”.
In the case of `CCCCc1nc(Cl)c(CO)n1Cc1ccc(-c2ccccc2-c2nn[nH]n2)cc1` [Losartan], the “tumor growth and vascularization” value [4] is listed as “reduce tumor growth and vascularization”, the “PAX2 expression compared to untreated control” value (DU145 [1]; DU145, 5 uM Los, 72 hours) is listed as 50% and the PAX2 message levels (DU145 [1]) is listed as “decreased by at least half”. For the same compound, the PAX2 message levels (DU145 [1]; listed as Los) was “significantly reduced PAX2 expression”, the phospho-STAT3 protein levels (DU145 [5]) was “suppresses phospho-STAT3 protein expression” and the phospho-STAT3 protein levels (DU145 [5]; listed as Los) was “reduced phospho-STAT3 protein levels”. The decrease in proliferation (DU145 [2]; DU145, 5 μM Losartan) was 50%, the “effect of AngII on proliferation after Los pre-treatment” value (DU145 [2]) was “blocked the effect of AngII on proliferation” and the “effect of AngII on proliferation after Los pre-treatment” value (DU145 [2]; listed as Los) was “suppressed the effect of AngII on proliferation”. The ERK protein levels (DU145 [3]; DU145, 5 uM Los) was “no effect”, the phospho-ERK (DU145 [3]; DU145, 5 uM Los) was “suppresses phosphor-ERK 1/2” and the phospho-ERK (DU145 [3]; DU145, 5 uM Los, listed as Los) was “reduced the amount of phospho-ERK”. The PAX2 expression (DU145 [3]) was “suppresses”, the phospho-PAX2 protein levels (DU145 [3]) was “significant decrease or suppression” and the PAX2 expression (DU145 [3]; listed as Los) was “significant reduction of PAX2 expression”.
With `N#CC(=C(/N)Sc1ccccc1N)/C(C#N)=C(\N)Sc1ccccc1N` [Drug U0126] the phospho-STAT3 protein levels (DU145 [5]) was “reduced phospho-STAT3 protein levels”, the phospho-JNK protein levels (DU145 [3]) was “did not decrease” and the PAX2 expression (DU145 [3]) was “significant reduction of PAX2 expression”. For the same compound, the phospho-PAX2 protein levels (DU145 [3]) was “significant decrease or suppression”.
`Cc1cc(Cn2cnc3c2C[C@@H](C(=O)O)N(C(=O)C(c2ccccc2)c2ccccc2)C3)ccc1N(C)C` [PD123319] showed a PAX2 expression increase (DU145 [1]; DU145, 5 uM PD123319, 48 hours) of 7 fold and a PAX2 expression increase (DU145 [1]; DU145, 5 uM PD123319, 96 hours) of 8 fold.
In the case of `NC(=O)c1ncn([C@@H]2O[C@H](CO)[C@@H](O)[C@H]2O)c1N` [AICAR, 5-Aminoimidazole-4-carboxamide-1-β-4-ribofuranoside], the phospho-STAT3 protein levels (DU145 [5]) is reported as “also suppressed”, the PAX2 expression (DU145 [3]) is reported as “suppresses PAX2 protein expression; also recorded: suppressed PAX2 expression; also recorded: suppression of PAX2 pression expression” and the phospho-PAX2 protein levels (DU145 [3]) is reported as “suppression”.
With `COc1cccc(-c2cc(=O)c3ccccc3o2)c1N` [PD98059] the phospho-STAT3 protein levels (DU145 [5]) was “reduced phospho-STAT3 protein levels”, the PAX2 expression (DU145 [3]) was “decreased PAX2” and the phospho-PAX2 protein levels (DU145 [3]) was “significant decrease or suppression”.
